TGI and GI50 data for ten compounds are collected here from PubChem BioAssay (NCI).

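Briefly, cells in 96-well plates were exposed to five compound concentrations for 48 h, and endpoints were estimated by linear interpolation. GI50: concentration for 50% inhibition of growth. TGI marks complete inhibition of growth.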 Some results are limits rather than exact numbers.

Some test systems named below: SN12C renal; NCI-H226 lung; BT-549 breast; T-47D breast; HOP-92 NSCLC; OVCAR-8 ovarian; SK-MEL-5 melanoma; HCT-15 colon; SK-MEL-2 melanoma; EKVX NSCLC.
What all share (assay): growth of human tumour cells (NCI), 48 h

Consider `CC(C(N)=O)N(C)C(=O)c1cnc2ccccc2c1` (centres undefined), for which the TGI in the test with SN12C renal, with NCI-H226 lung, in the test on BT-549 breast, in the test on T-47D breast, in the test on HOP-92 NSCLC and in the test with OVCAR-8 ovarian was more than 100 µM throughout. Further, the TGI in the test on SK-MEL-5 melanoma, with HCT-15 colon and in the test on SK-MEL-2 melanoma was more than 100 µM throughout.
`NC(=O)c1ccc(N(C(N)=O)c2c(F)cccc2F)nc1-c1ccc(F)cc1F`: the GI50 with SN12C renal was more than 100 µM; in the test on NCI-H226 lung, more than 100 µM; in the test with BT-549 breast, more than 100 µM; with T-47D breast it was more than 100 µM; in the test on HOP-92 NSCLC, 28 µM; in the test on OVCAR-8 ovarian, more than 100 µM. In addition, the GI50 with SK-MEL-5 melanoma, in the test on HCT-15 colon and in the test on SK-MEL-2 melanoma was more than 100 µM throughout. Besides, the TGI with SN12C renal, in the test with NCI-H226 lung, in the test with BT-549 breast, with T-47D breast, in the test on HOP-92 NSCLC and in the test on OVCAR-8 ovarian was more than 100 µM each time. Further, the TGI with SK-MEL-5 melanoma, in the test on HCT-15 colon and with SK-MEL-2 melanoma was more than 100 µM throughout.
As to `NNC(=O)C(O)C(O)C(=O)NN` (centres undefined), the TGI in the test with SN12C renal, with EKVX NSCLC, in the test with NCI-H226 lung, in the test with BT-549 breast, in the test on T-47D breast and in the test with OVCAR-8 ovarian was more than 100 µM in each case. Moreover, the TGI with SK-MEL-5 melanoma, in the test on HCT-15 colon and in the test with SK-MEL-2 melanoma was more than 100 µM in each case.
In the case of `COc1cccc2c1cc1c3c(cc4c(c32)OCO4)C(=O)N1`, the GI50 with SN12C renal was 2.87 µM; in the test with NCI-H226 lung, 5.8 µM; in the test on BT-549 breast, 2.08 µM; in the test with T-47D breast, 2.33 µM; in the test with HOP-92 NSCLC, 1.71 µM; with OVCAR-8 ovarian, 2.28 µM. Also, the GI50 is 4.49 µM with SK-MEL-5 melanoma, 4.14 µM in the test on HCT-15 colon and 16.5 µM in the test with SK-MEL-2 melanoma. In addition, the TGI in the test with SN12C renal was determined as 19.6 µM; with NCI-H226 lung it was 54 µM; with BT-549 breast, 4.74 µM; in the test on T-47D breast, 6.81 µM; with HOP-92 NSCLC, 6.98 µM; in the test on OVCAR-8 ovarian it was 6.01 µM. Also, the TGI with SK-MEL-5 melanoma was more than 100 µM; with HCT-15 colon it was more than 100 µM; with SK-MEL-2 melanoma it was 44.2 µM.
Turning to `CCCOC(=O)C1C2CCC(O2)C1C(=O)O` (centres undefined), the TGI with SN12C renal, in the test on EKVX NSCLC, with NCI-H226 lung, in the test with BT-549 breast, in the test with T-47D breast and with OVCAR-8 ovarian was more than 100 µM in each case. For the same compound, the TGI in the test on SK-MEL-5 melanoma, with HCT-15 colon and in the test on SK-MEL-2 melanoma was more than 100 µM in each case.
`O=C(/C=C/c1ccccc1)CCC1C(=O)NC(=S)NC1=O`: the TGI in the test on SN12C renal, in the test on NCI-H226 lung, with BT-549 breast, in the test on T-47D breast, with HOP-92 NSCLC and in the test with OVCAR-8 ovarian was more than 100 µM throughout. The TGI with SK-MEL-5 melanoma, in the test on HCT-15 colon and with SK-MEL-2 melanoma was more than 100 µM in each case.
On to `Cc1ccc(-c2n[nH]c(=O)c3noc(-c4ccc(C)cc4)c23)cc1`, for which the GI50 in the test on SN12C renal was 1.4 µM; in the test on NCI-H226 lung it was 6.88 µM; in the test with BT-549 breast it was 1.33 µM; in the test with T-47D breast, 2.41 µM; in the test on HOP-92 NSCLC, 0.194 µM; in the test with OVCAR-8 ovarian, 1.82 µM. Further, the GI50 in the test on SK-MEL-5 melanoma is 0.97 µM; in the test on HCT-15 colon, 0.651 µM; in the test on SK-MEL-2 melanoma, 0.451 µM. Moreover, the TGI in the test on SN12C renal is more than 100 µM; in the test on NCI-H226 lung, more than 100 µM; with BT-549 breast, 12.8 µM; in the test on T-47D breast, more than 100 µM; with HOP-92 NSCLC, 0.962 µM; with OVCAR-8 ovarian, 27.7 µM. Also, the TGI in the test on SK-MEL-5 melanoma was more than 100 µM; with HCT-15 colon, more than 100 µM; with SK-MEL-2 melanoma it was 9.49 µM.
For the compound `Cn1cc(C2=C(c3cn(CCCCC(=N)N)c4ccccc34)C(=O)NC2=O)c2ccccc21`, the GI50 in the test with SN12C renal, with NCI-H226 lung, with BT-549 breast, in the test on T-47D breast, with HOP-92 NSCLC and in the test with OVCAR-8 ovarian was more than 25 µM in each case. Besides, the values for the GI50 with SK-MEL-5 melanoma, in the test with HCT-15 colon and with SK-MEL-2 melanoma were more than 23.6 µM, more than 25 µM and 12.6 µM, respectively. Besides, the TGI in the test with SN12C renal, with NCI-H226 lung, in the test on BT-549 breast, in the test with T-47D breast, in the test on HOP-92 NSCLC and in the test with OVCAR-8 ovarian was more than 25 µM throughout. Further, the TGI with SK-MEL-5 melanoma, in the test with HCT-15 colon and in the test on SK-MEL-2 melanoma was more than 25 µM each time.
`O=Cc1ccc(N2CCN(c3ccc(C=O)cc3)CC2)cc1`: the GI50 in the test on SN12C renal was more than 100 µM; in the test with EKVX NSCLC, more than 100 µM; in the test on NCI-H226 lung, 1.65 µM; in the test with T-47D breast it was 3.35 µM; in the test with HOP-92 NSCLC, more than 100 µM; in the test with OVCAR-8 ovarian, more than 100 µM. For the same compound, the GI50 with SK-MEL-5 melanoma, in the test with HCT-15 colon and in the test with SK-MEL-2 melanoma was more than 100 µM in each case. The TGI was more than 100 µM with SN12C renal; more than 100 µM in the test on EKVX NSCLC; 4.12 µM with NCI-H226 lung; 32.6 µM in the test on T-47D breast; more than 100 µM in the test on HOP-92 NSCLC; more than 100 µM with OVCAR-8 ovarian. Further, the TGI in the test on SK-MEL-5 melanoma, in the test with HCT-15 colon and with SK-MEL-2 melanoma was more than 100 µM each time.
`Nc1c(C(=O)Nc2cccc3ccccc23)sc2nc3c(cc12)C(=O)CCC3`: the GI50 in the test with SN12C renal is 0.539 µM; with NCI-H226 lung, 1.16 µM; in the test on BT-549 breast, 3.08 µM; in the test with T-47D breast, 0.759 µM; with HOP-92 NSCLC, 2.92 µM; with OVCAR-8 ovarian, 0.506 µM. For the same compound, the GI50 with SK-MEL-5 melanoma was 0.333 µM; in the test with HCT-15 colon, 0.262 µM; with SK-MEL-2 melanoma, 0.0915 µM. The TGI with SN12C renal is more than 100 µM; in the test with NCI-H226 lung, more than 63.6 µM; in the test on BT-549 breast, more than 67.1 µM; with T-47D breast, more than 100 µM; with HOP-92 NSCLC, more than 100 µM; in the test with OVCAR-8 ovarian it was 32.1 µM. Further, the values for the TGI in the test on SK-MEL-5 melanoma, in the test on HCT-15 colon and with SK-MEL-2 melanoma were 4.44 µM, more than 100 µM and 19.1 µM, respectively.
